Experiments:
velvetleaf [1] = experiment: Test Example 5: herbicidal effect by foliage application, plastic box (Table 20, symbol M); format: in vivo, velvetleaf (Abutilon theophrasti); settings: foliage application, AAH 320 g/ha, evaluated three weeks after application
How it was run: (§1)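 Plants sown in sterilized diluvial soil and grown 14 days in a greenhouse at 25° C to 30° C, then sprayed on the foliage with the compound's emulsion diluted in water to a predetermined herbicide amount. Injury to weeds and crops scored three weeks after application on a visual rating scale.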

rice flat sedge = experiment: Test Example 3: herbicidal effect by foliage application, Wagner pot (Table 18, symbol E); format: in vivo, rice flat sedge (Cyperus iria); settings: amount of applied herbicide 320 g/ha
How it was run: (§2)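 Plants were sown in alluvial soil held under 0.1–0.5 cm standing water and grown 14 days in a greenhouse at 25–30 °C. An emulsifiable formulation, water-diluted to the set dose, was then sprayed onto the foliage, and effects were scored three weeks later using previously defined criteria.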

windgrass [2] = experiment: Test Example 5: herbicidal effect by foliage application, plastic box (Table 20, symbol L); format: in vivo, windgrass (Apera spica-venti); settings: foliage application, AAH 320 g/ha, evaluated three weeks after application
How it was run: as §1

barnyard grass [3] = experiment: Test Example 5: herbicidal effect by foliage application, plastic box (Table 20, symbol H); format: in vivo, barnyard grass (Echinochloa crus-galli); settings: foliage application, AAH 320 g/ha, evaluated three weeks after application
How it was run: as §1

lambsquarters [4] = experiment: Test Example 4: herbicidal effect by soil treatment (Table 19, symbol O); format: in vivo, lambsquarters (Chenopodium album); settings: amount of applied herbicide 320 g/ha
How it was run: (§3)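 Three weeks of greenhouse growth at 25° C. to 30° C. followed a uniform surface spray of water-diluted emulsion at a predetermined herbicide amount. Seeds had been sown beforehand under about 1.5 cm of sterilized diluvial soil. Grading followed criteria set out in an earlier test.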

false cleavers = experiment: Test Example 4: herbicidal effect by soil treatment (Table 19, symbol Q); format: in vivo, false cleavers (Galium spurium); settings: amount of applied herbicide 320 g/ha
How it was run: as §3

velvetleaf [5] = experiment: Test Example 4: herbicidal effect by soil treatment (Table 19, symbol M); format: in vivo, velvetleaf (Abutilon theophrasti); settings: amount of applied herbicide 320 g/ha
How it was run: as §3

wild oat [6] = experiment: Test Example 5: herbicidal effect by foliage application, plastic box (Table 20, symbol I); format: in vivo, wild oat (Avena fatua); settings: foliage application, AAH 320 g/ha, evaluated three weeks after application
How it was run: as §1

redroot pigweed [7] = experiment: Test Example 5: herbicidal effect by foliage application, plastic box (Table 20, symbol N); format: in vivo, redroot pigweed (Amaranthus retroflexus); settings: foliage application, AAH 320 g/ha, evaluated three weeks after application
How it was run: as §1

wild oat [8] = experiment: Test Example 4: herbicidal effect by soil treatment (Table 19, symbol I); format: in vivo, wild oat (Avena fatua); settings: amount of applied herbicide 320 g/ha
How it was run: as §3

blackgrass [9] = experiment: Test Example 4: herbicidal effect by soil treatment (Table 19, symbol J); format: in vivo, blackgrass (Alopecurus myosuroides); settings: amount of applied herbicide 320 g/ha
How it was run: as §3

lambsquarters [10] = experiment: Test Example 5: herbicidal effect by foliage application, plastic box (Table 20, symbol O); format: in vivo, lambsquarters (Chenopodium album); settings: foliage application, AAH 320 g/ha, evaluated three weeks after application
How it was run: as §1

Chinese sprangletop = experiment: Test Example 3: herbicidal effect by foliage application, Wagner pot (Table 18, symbol D); format: in vivo, chinese sprangletop (Leptochloa chinensis); settings: amount of applied herbicide 320 g/ha
How it was run: as §2

Italian ryegrass [11] = experiment: Test Example 5: herbicidal effect by foliage application, plastic box (Table 20, symbol K); format: in vivo, Italian ryegrass (Lolium multiflorum); settings: foliage application, AAH 320 g/ha, evaluated three weeks after application
How it was run: as §1

chickweed [12] = experiment: Test Example 5: herbicidal effect by foliage application, plastic box (Table 20, symbol P); format: in vivo, common chickweed (Stellaria media); settings: foliage application, AAH 320 g/ha, evaluated three weeks after application
How it was run: as §1

Italian ryegrass [13] = experiment: Test Example 4: herbicidal effect by soil treatment (Table 19, symbol K); format: in vivo, Italian ryegrass (Lolium multiflorum); settings: amount of applied herbicide 320 g/ha
How it was run: as §3

southern crabgrass [14] = experiment: Test Example 5: herbicidal effect by foliage application, plastic box (Table 20, symbol F); format: in vivo, southern crabgrass (Digitaria ciliaris); settings: foliage application, AAH 320 g/ha, evaluated three weeks after application
How it was run: as §1

oval-leafed pondweed = experiment: Test Example 1: herbicidal activity, application before weed generation under submerged conditions (Table 16, symbol C); format: in vivo, oval-leafed pondweed (Monochoria vaginalis); settings: 320 g/ha applied herbicide
How it was run: (§4)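 Emulsion formulation, water-diluted to set dose, was put onto the flooded surface (4 cm depth, alluvial soil) the same day weeds were sown and 2.5-leaf rice transplanted. After 3 weeks at 25-30 °C under glass, each species was rated 0 (≤5% kill) to 5 (≥90% kill).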

southern crabgrass [15] = experiment: Test Example 4: herbicidal effect by soil treatment (Table 19, symbol F); format: in vivo, southern crabgrass (Digitaria ciliaris); settings: amount of applied herbicide 320 g/ha
How it was run: as §3

Japanese bulrush = experiment: Test Example 1: herbicidal activity, application before weed generation under submerged conditions (Table 16, symbol B); format: in vivo, Japanese bulrush (Schoenoplectus juncoides); settings: 320 g/ha applied herbicide
How it was run: as §4

windgrass [16] = experiment: Test Example 4: herbicidal effect by soil treatment (Table 19, symbol L); format: in vivo, windgrass (Apera spica-venti); settings: amount of applied herbicide 320 g/ha
How it was run: as §3

green foxtail [17] = experiment: Test Example 5: herbicidal effect by foliage application, plastic box (Table 20, symbol G); format: in vivo, green foxtail (Setaria viridis); settings: foliage application, AAH 320 g/ha, evaluated three weeks after application
How it was run: as §1

green foxtail [18] = experiment: Test Example 4: herbicidal effect by soil treatment (Table 19, symbol G); format: in vivo, green foxtail (Setaria viridis); settings: amount of applied herbicide 320 g/ha
How it was run: as §3

persian speedwell [19] = experiment: Test Example 5: herbicidal effect by foliage application, plastic box (Table 20, symbol R); format: in vivo, Persian speedwell (Veronica persica); settings: foliage application, AAH 320 g/ha, evaluated three weeks after application
How it was run: as §1

persian speedwell [20] = experiment: Test Example 4: herbicidal effect by soil treatment (Table 19, symbol R); format: in vivo, Persian speedwell (Veronica persica); settings: amount of applied herbicide 320 g/ha
How it was run: as §3

barnyard grass [21] = experiment: Test Example 3: herbicidal effect by foliage application, Wagner pot (Table 18, symbol H); format: in vivo, barnyard grass (Echinochloa crus-galli); settings: amount of applied herbicide 320 g/ha
How it was run: as §2

chickweed [22] = experiment: Test Example 4: herbicidal effect by soil treatment (Table 19, symbol P); format: in vivo, common chickweed (Stellaria media); settings: amount of applied herbicide 320 g/ha
How it was run: as §3

blackgrass [23] = experiment: Test Example 5: herbicidal effect by foliage application, plastic box (Table 20, symbol J); format: in vivo, blackgrass (Alopecurus myosuroides); settings: foliage application, AAH 320 g/ha, evaluated three weeks after application
How it was run: as §1

barnyard grass [24] = experiment: Test Example 4: herbicidal effect by soil treatment (Table 19, symbol H); format: in vivo, barnyard grass (Echinochloa crus-galli); settings: amount of applied herbicide 320 g/ha
How it was run: as §3

redroot pigweed [25] = experiment: Test Example 4: herbicidal effect by soil treatment (Table 19, symbol N); format: in vivo, redroot pigweed (Amaranthus retroflexus); settings: amount of applied herbicide 320 g/ha
How it was run: as §3

late watergrass = experiment: Test Example 1: herbicidal activity, application before weed generation under submerged conditions (Table 16, symbol A); format: in vivo, late watergrass (Echinochloa oryzicola); settings: 320 g/ha applied herbicide
How it was run: as §4

SMILES | M: velvetleaf, herbicidal effect (criteria 0-5) (velvetleaf [1]) | herbicidal effect on E: rice flat sedge (rice flat sedge) | L: windgrass, herbicidal effect (criteria 0-5) (windgrass [2]) | H: barnyard grass, herbicidal effect (criteria 0-5) (barnyard grass [3]) | herbicidal effect on O: lambsquarters (lambsquarters [4]) | herbicidal effect on Q: false cleavers (false cleavers) | herbicidal effect on M: velvetleaf (velvetleaf [5]) | I: wild oat, herbicidal effect (criteria 0-5) (wild oat [6]) | N: redroot pigweed, herbicidal effect (criteria 0-5) (redroot pigweed [7]) | herbicidal effect on I: wild oat (wild oat [8]) | herbicidal effect on J: blackgrass (blackgrass [9]) | O: lambsquarters, herbicidal effect (criteria 0-5) (lambsquarters [10]) | herbicidal effect on D: Chinese sprangletop (Chinese sprangletop) | K: Italian ryegrass, herbicidal effect (criteria 0-5) (Italian ryegrass [11]) | P: chickweed, herbicidal effect (criteria 0-5) (chickweed [12]) | herbicidal effect on K: Italian ryegrass (Italian ryegrass [13]) | F: southern crabgrass, herbicidal effect (criteria 0-5) (southern crabgrass [14]) | Herbicidal effect on C: oval-leafed pondweed (grade 0-5) (oval-leafed pondweed) | herbicidal effect on F: southern crabgrass (southern crabgrass [15]) | Herbicidal effect on B: Japanese bulrush (grade 0-5) (Japanese bulrush) | other results
COCCOCOc1c(C)nn(C)c(=O)c1-c1c(-c2ccc(OC(F)F)cc2)sc2ccc(F)cc12 [2-307] | 5 (Herbicidal rate of 90% or more (almost completely withered)) | 4 (Herbicidal rate of 70% or more and less than 90%) | 3 (Herbicidal rate of 40% or more and less than 70%) | 5 (Herbicidal rate of 90% or more (almost completely withered)) | 5 (Herbicidal rate of 90% or more (almost completely withered)) | 0 (Herbicidal rate of 5% or less (almost no effect)) | 0 (Herbicidal rate of 5% or less (almost no effect)) | 3 (Herbicidal rate of 40% or more and less than 70%) | 5 (Herbicidal rate of 90% or more (almost completely withered)) | 0 (Herbicidal rate of 5% or less (almost no effect)) | 2 (Herbicidal rate of 20% or more and less than 40%) | 5 (Herbicidal rate of 90% or more (almost completely withered)) | 5 (Herbicidal rate of 90% or more (almost completely withered)) | 5 (Herbicidal rate of 90% or more (almost completely withered)) | 5 (Herbicidal rate of 90% or more (almost completely withered)) | 1 (Herbicidal rate of 5% or more and less than 20%) | 2 (Herbicidal rate of 20% or more and less than 40%) | 0 (Herbicidal rate of 5% or less (almost no effect)) | 4 (Herbicidal rate of 70% or more and less than 90%) | 3 (Herbicidal rate of 40% or more and less than 70%) | herbicidal effect on L: windgrass (windgrass [16]): 0 (Herbicidal rate of 5% or less (almost no effect)); G: green foxtail, herbicidal effect (criteria 0-5) (green foxtail [17]): 5 (Herbicidal rate of 90% or more (almost completely withered)); herbicidal effect on G: green foxtail (green foxtail [18]): 4 (Herbicidal rate of 70% or more and less than 90%); R: persian speedwell, herbicidal effect (criteria 0-5) (persian speedwell [19]): 5 (Herbicidal rate of 90% or more (almost completely withered)); herbicidal effect on R: persian speedwell (persian speedwell [20]): 5 (Herbicidal rate of 90% or more (almost completely withered)); herbicidal effect on H: barnyard grass (barnyard grass [21]): 5 (Herbicidal rate of 90% or more (almost completely withered)); herbicidal effect on P: chickweed (chickweed [22]): 3 (Herbicidal rate of 40% or more and less than 70%); J: blackgrass, herbicidal effect (criteria 0-5) (blackgrass [23]): 4 (Herbicidal rate of 70% or more and less than 90%); herbicidal effect on H: barnyard grass (barnyard grass [24]): 3 (Herbicidal rate of 40% or more and less than 70%); herbicidal effect on N: redroot pigweed (redroot pigweed [25]): 5 (Herbicidal rate of 90% or more (almost completely withered)); Herbicidal effect on A: late watergrass (grade 0-5) (late watergrass): 0 (Herbicidal rate of 5% or less (almost no effect))
CSCCSCc1ccc(-c2sc3ccc(F)cc3c2-c2c(O)c(C)nn(C)c2=O)cc1 [2-329] | 5 (Herbicidal rate of 90% or more (almost completely withered)) | 4 (Herbicidal rate of 70% or more and less than 90%) | 5 (Herbicidal rate of 90% or more (almost completely withered)) | 4 (Herbicidal rate of 70% or more and less than 90%) | 0 (Herbicidal rate of 5% or less (almost no effect)) | 0 (Herbicidal rate of 5% or less (almost no effect)) | 0 (Herbicidal rate of 5% or less (almost no effect)) | 3 (Herbicidal rate of 40% or more and less than 70%) | 5 (Herbicidal rate of 90% or more (almost completely withered)) | 0 (Herbicidal rate of 5% or less (almost no effect)) | 0 (Herbicidal rate of 5% or less (almost no effect)) | 4 (Herbicidal rate of 70% or more and less than 90%) | 4 (Herbicidal rate of 70% or more and less than 90%) | 4 (Herbicidal rate of 70% or more and less than 90%) | 5 (Herbicidal rate of 90% or more (almost completely withered)) | 0 (Herbicidal rate of 5% or less (almost no effect)) | 5 (Herbicidal rate of 90% or more (almost completely withered)) | 0 (Herbicidal rate of 5% or less (almost no effect)) | 0 (Herbicidal rate of 5% or less (almost no effect)) | 0 (Herbicidal rate of 5% or less (almost no effect)) | herbicidal effect on L: windgrass (windgrass [16]): 0 (Herbicidal rate of 5% or less (almost no effect)); G: green foxtail, herbicidal effect (criteria 0-5) (green foxtail [17]): 5 (Herbicidal rate of 90% or more (almost completely withered)); herbicidal effect on G: green foxtail (green foxtail [18]): 0 (Herbicidal rate of 5% or less (almost no effect)); R: persian speedwell, herbicidal effect (criteria 0-5) (persian speedwell [19]): 5 (Herbicidal rate of 90% or more (almost completely withered)); herbicidal effect on R: persian speedwell (persian speedwell [20]): 0 (Herbicidal rate of 5% or less (almost no effect)); herbicidal effect on H: barnyard grass (barnyard grass [21]): 5 (Herbicidal rate of 90% or more (almost completely withered)); herbicidal effect on P: chickweed (chickweed [22]): 0 (Herbicidal rate of 5% or less (almost no effect)); J: blackgrass, herbicidal effect (criteria 0-5) (blackgrass [23]): 4 (Herbicidal rate of 70% or more and less than 90%); herbicidal effect on H: barnyard grass (barnyard grass [24]): 0 (Herbicidal rate of 5% or less (almost no effect)); herbicidal effect on N: redroot pigweed (redroot pigweed [25]): 3 (Herbicidal rate of 40% or more and less than 70%); Herbicidal effect on A: late watergrass (grade 0-5) (late watergrass): 2 (Herbicidal rate of 20% or more and less than 40%)

From patent US20230085307A1, “PYRIDAZINONE COMPOUND AND HERBICIDE” (NISSAN CHEMICAL CORPORATION, priority 2019, published 2023)
